Among the data in ChEMBL document CHEMBL1157641, “Carbonic anhydrase inhibitors. Inhibition of mammalian isoforms I-XIV with a series of natural product polyphenols and phenolic acids” (Bioorg Med Chem, 2010) are Ki values, retold here.

Usually Ki stands for a dissociation constant, usually derived from enzyme kinetics or from competition with a known ligand. The low end stands for tighter binding, the high end for weaker binding.

Targets include Carbonic anhydrase 12 (Homo sapiens, UniProt O43570); Carbonic anhydrase 14 (Homo sapiens, UniProt Q9ULX7); Carbonic anhydrase 7 (Homo sapiens, UniProt P43166); Carbonic anhydrase 9 (Homo sapiens, UniProt Q16790); Carbonic anhydrase 2 (Homo sapiens, UniProt P00918); Carbonic anhydrase 6 (Homo sapiens, UniProt P23280); Carbonic anhydrase 4 (Homo sapiens, UniProt P22748); Carbonic anhydrase 13 (Mus musculus, UniProt Q9D6N1); Carbonic anhydrase 3 (Homo sapiens, UniProt P07451); Carbonic anhydrase 1 (Homo sapiens, UniProt P00915).

Experiment [1] has as its target Carbonic anhydrase 5B, mitochondrial (Homo sapiens, UniProt Q9Y2D0).
Description: Inhibition of human CA5B by stopped-flow CO2 hydration assay
For experiment [2], the target named is Carbonic anhydrase 5A, mitochondrial (Homo sapiens, UniProt P35218).
Carbonic anhydrase 5A, mitochondrial, sequence (P35218 whole entry): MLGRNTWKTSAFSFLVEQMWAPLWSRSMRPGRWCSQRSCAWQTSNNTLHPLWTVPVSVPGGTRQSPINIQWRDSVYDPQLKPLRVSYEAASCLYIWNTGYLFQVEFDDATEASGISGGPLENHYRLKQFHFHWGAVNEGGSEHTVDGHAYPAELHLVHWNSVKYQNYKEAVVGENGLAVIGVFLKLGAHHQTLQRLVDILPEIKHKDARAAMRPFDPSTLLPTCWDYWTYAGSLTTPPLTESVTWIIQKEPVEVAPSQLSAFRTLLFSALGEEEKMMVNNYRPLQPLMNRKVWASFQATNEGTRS
Description: Inhibition of human CA5A by stopped-flow CO2 hydration assay

Carbonic anhydrase 3, sequence (P07451 whole entry): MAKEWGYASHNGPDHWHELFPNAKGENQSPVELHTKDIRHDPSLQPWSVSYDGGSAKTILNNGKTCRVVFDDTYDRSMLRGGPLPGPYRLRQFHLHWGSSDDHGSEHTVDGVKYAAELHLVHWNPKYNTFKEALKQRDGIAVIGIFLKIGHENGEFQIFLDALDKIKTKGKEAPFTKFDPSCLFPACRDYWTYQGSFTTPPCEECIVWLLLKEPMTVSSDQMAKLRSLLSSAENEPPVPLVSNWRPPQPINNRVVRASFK
Carbonic anhydrase 6, sequence (P23280 whole entry): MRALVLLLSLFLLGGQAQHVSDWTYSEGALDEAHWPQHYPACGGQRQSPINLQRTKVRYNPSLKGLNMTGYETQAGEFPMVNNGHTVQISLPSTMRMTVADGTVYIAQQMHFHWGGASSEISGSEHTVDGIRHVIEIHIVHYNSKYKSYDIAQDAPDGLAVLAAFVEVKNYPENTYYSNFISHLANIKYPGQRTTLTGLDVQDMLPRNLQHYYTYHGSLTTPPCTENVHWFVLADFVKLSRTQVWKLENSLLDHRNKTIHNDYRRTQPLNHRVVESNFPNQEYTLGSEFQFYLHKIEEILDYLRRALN
Carbonic anhydrase 4, sequence (P22748 whole entry): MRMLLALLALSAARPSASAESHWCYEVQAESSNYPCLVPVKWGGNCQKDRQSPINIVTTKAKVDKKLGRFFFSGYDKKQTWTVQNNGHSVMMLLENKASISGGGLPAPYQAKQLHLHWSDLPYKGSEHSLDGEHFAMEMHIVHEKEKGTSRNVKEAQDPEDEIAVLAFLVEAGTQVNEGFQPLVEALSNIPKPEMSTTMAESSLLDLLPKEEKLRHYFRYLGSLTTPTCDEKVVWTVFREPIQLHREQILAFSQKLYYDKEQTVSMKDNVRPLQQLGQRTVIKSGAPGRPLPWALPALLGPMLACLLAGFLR
Carbonic anhydrase 5B, mitochondrial, sequence (Q9Y2D0 whole entry): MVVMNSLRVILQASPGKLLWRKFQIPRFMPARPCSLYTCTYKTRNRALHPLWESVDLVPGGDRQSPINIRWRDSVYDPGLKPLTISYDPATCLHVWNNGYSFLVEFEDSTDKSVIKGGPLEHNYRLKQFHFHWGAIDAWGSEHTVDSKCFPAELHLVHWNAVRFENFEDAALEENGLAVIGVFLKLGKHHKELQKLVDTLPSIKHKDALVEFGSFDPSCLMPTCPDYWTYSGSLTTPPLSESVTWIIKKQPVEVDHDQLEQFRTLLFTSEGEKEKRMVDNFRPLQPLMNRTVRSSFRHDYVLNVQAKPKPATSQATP
Carbonic anhydrase 13, sequence (Q9D6N1 whole entry): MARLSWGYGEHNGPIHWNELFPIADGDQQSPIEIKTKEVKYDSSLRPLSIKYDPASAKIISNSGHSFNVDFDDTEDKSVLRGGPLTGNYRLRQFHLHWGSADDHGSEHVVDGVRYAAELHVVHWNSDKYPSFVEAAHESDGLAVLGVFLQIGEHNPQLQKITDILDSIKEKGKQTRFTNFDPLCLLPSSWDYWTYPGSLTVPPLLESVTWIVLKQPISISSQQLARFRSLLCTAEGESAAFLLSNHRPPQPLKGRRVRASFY
Carbonic anhydrase 1, sequence (P00915 whole entry): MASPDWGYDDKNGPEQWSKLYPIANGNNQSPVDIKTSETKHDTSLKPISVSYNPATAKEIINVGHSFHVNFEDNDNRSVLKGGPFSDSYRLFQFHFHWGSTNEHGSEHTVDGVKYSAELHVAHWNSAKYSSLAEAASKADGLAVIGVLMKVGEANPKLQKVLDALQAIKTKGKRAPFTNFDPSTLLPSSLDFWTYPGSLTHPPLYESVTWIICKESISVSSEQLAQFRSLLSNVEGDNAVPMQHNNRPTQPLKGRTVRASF
Carbonic anhydrase 7, sequence (P43166 whole entry): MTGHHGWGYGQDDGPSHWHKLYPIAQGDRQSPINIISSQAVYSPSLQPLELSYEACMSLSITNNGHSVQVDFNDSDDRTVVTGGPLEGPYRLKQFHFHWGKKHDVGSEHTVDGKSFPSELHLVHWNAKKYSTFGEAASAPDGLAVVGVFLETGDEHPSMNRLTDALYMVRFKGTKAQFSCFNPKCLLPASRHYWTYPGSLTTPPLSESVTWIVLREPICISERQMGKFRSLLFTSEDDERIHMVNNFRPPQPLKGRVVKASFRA
Carbonic anhydrase 12, sequence (O43570 whole entry): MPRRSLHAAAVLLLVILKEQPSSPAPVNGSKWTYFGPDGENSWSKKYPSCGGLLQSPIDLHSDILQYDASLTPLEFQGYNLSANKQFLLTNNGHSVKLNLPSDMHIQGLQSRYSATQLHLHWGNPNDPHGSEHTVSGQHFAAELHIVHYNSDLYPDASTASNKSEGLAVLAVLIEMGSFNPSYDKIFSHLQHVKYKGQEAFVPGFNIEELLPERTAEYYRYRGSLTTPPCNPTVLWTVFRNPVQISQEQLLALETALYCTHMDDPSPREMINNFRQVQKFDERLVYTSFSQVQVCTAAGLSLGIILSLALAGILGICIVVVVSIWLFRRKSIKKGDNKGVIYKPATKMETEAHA
Carbonic anhydrase 14, sequence (Q9ULX7 whole entry): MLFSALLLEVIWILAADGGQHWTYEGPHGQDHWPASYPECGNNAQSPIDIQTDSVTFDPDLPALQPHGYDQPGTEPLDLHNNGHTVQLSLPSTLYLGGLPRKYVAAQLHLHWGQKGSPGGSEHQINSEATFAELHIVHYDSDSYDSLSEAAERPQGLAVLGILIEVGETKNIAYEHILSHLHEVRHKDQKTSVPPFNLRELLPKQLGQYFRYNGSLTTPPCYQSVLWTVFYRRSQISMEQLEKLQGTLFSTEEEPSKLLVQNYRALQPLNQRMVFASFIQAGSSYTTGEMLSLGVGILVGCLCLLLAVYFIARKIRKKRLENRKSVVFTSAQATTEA
Description for Carbonic anhydrase 12: Inhibition of human CA12 by stopped-flow CO2 hydration assay
Description for Carbonic anhydrase 13: Inhibition of mouse CA13 by stopped-flow CO2 hydration assay
Description for Carbonic anhydrase 14: Inhibition of human CA14 by stopped-flow CO2 hydration assay
Description for Carbonic anhydrase 2: Inhibition of human CA2 by stopped-flow CO2 hydration assay
Description for Carbonic anhydrase 3: Inhibition of human CA3 by stopped-flow CO2 hydration assay
Description for Carbonic anhydrase 4: Inhibition of human CA4 by stopped-flow CO2 hydration assay
Description for Carbonic anhydrase 6: Inhibition of human CA6 by stopped-flow CO2 hydration assay
Description for Carbonic anhydrase 7: Inhibition of human CA7 by stopped-flow CO2 hydration assay
Description for Carbonic anhydrase 9: Inhibition of human CA9 by stopped-flow CO2 hydration assay

Regarding `O=C(O)c1cc(O)c(O)c(O)c1` [GALLIC ACID], the Ki in [1] was found to be 9.97 µM; at Carbonic anhydrase 12, 7.78 µM; on Carbonic anhydrase 14, 7.03 µM; in [2], 4.08 µM; on Carbonic anhydrase 7 it was 6.07 µM; at Carbonic anhydrase 9 it was 6.99 µM. Further, the Ki at Carbonic anhydrase 2 was determined as 2.25 µM; on Carbonic anhydrase 6 it was 6.13 µM; at Carbonic anhydrase 4, 9.8 µM; at Carbonic anhydrase 13, 9.86 µM; at Carbonic anhydrase 3 it was 7.49 µM; on Carbonic anhydrase 1, 3.2 µM.
For `O=c1oc2c(O)c(O)cc3c(=O)oc4c(O)c(O)cc1c4c23` [ELLAGIC ACID], the Ki in experiment [1] turned out to be 12.7 µM; at Carbonic anhydrase 12 it was 10.1 µM; at Carbonic anhydrase 14, 8.91 µM; in experiment [2], 7.59 µM; on Carbonic anhydrase 7, 6.32 µM; on Carbonic anhydrase 9, 9.37 µM. For the same molecule, the Ki at Carbonic anhydrase 6 stood at 7.06 µM; at Carbonic anhydrase 4, 9.08 µM; on Carbonic anhydrase 13, 10.3 µM; at Carbonic anhydrase 3, 10.5 µM; at Carbonic anhydrase 1, 2.32 µM.
Take `COc1cc(C(=O)O)cc(OC)c1O` [SYRINGIC ACID]: the Ki came out at 35.4 µM in [1]; 9.01 µM at Carbonic anhydrase 12; 9.14 µM on Carbonic anhydrase 14; 6.34 µM in experiment [2]; 7.81 µM at Carbonic anhydrase 7; 8.2 µM at Carbonic anhydrase 9. Besides, the Ki at Carbonic anhydrase 2 was 3.19 µM; at Carbonic anhydrase 6 it was 7.55 µM; on Carbonic anhydrase 4, 10.6 µM; at Carbonic anhydrase 13 it was 11 µM; at Carbonic anhydrase 3 it was 8.58 µM; on Carbonic anhydrase 1 it was 4.15 µM.
For `O=C(O)c1ccc(O)cc1` [PARABEN], the Ki turned out to be 6.27 µM on Carbonic anhydrase 12; 6.16 µM on Carbonic anhydrase 14; 3.67 µM in experiment [2]; 4.08 µM on Carbonic anhydrase 7; 3.73 µM on Carbonic anhydrase 9; 5.7 µM at Carbonic anhydrase 6. For the same molecule, the Ki at Carbonic anhydrase 4 came out at 7.78 µM; at Carbonic anhydrase 13, 7.79 µM; on Carbonic anhydrase 3 it was 6.61 µM; at Carbonic anhydrase 1, 0.92 µM.
In the case of `COc1cc(/C=C/C(=O)O)ccc1O` [FERULATE], the Ki in experiment [1] worked out at 10.5 µM; at Carbonic anhydrase 12 it was 9.78 µM; at Carbonic anhydrase 14 it was 9.43 µM; in experiment [2] it was 7.04 µM; at Carbonic anhydrase 7, 7.41 µM; at Carbonic anhydrase 9 it was 9.87 µM. Further, the Ki at Carbonic anhydrase 2 amounted to 2.4 µM; at Carbonic anhydrase 6 it was 8.45 µM; at Carbonic anhydrase 4 it was 10.8 µM; on Carbonic anhydrase 13, 12.2 µM; on Carbonic anhydrase 3, 11.1 µM; on Carbonic anhydrase 1 it was 2.89 µM.
Regarding `O=C(O)/C=C/c1ccc(O)cc1` [COUMARIC ACID], the Ki turned out to be 7.76 µM in experiment [1]; 8.01 µM on Carbonic anhydrase 12; 6.68 µM on Carbonic anhydrase 14; 5.96 µM in [2]; 5.23 µM on Carbonic anhydrase 7; 5.33 µM on Carbonic anhydrase 9. The Ki at Carbonic anhydrase 2 came to 0.98 µM; on Carbonic anhydrase 6, 6.72 µM; on Carbonic anhydrase 4 it was 9.6 µM; on Carbonic anhydrase 13, 10.1 µM; on Carbonic anhydrase 3 it was 7.57 µM; at Carbonic anhydrase 1, 1.07 µM.
As to `O=c1c(O)c(-c2ccc(O)c(O)c2)oc2cc(O)cc(O)c12` [QUERCETIN], the Ki came to 11.9 µM in experiment [1]; 9.39 µM on Carbonic anhydrase 12; 5.41 µM at Carbonic anhydrase 14; 6.81 µM in experiment [2]; 4.84 µM on Carbonic anhydrase 7; 7 µM at Carbonic anhydrase 9. Besides, the Ki is 2.54 µM on Carbonic anhydrase 2; 6.17 µM on Carbonic anhydrase 6; 7.89 µM on Carbonic anhydrase 4; 9.03 µM at Carbonic anhydrase 13; 8.1 µM at Carbonic anhydrase 3; 2.68 µM on Carbonic anhydrase 1.
